Reference: US20080025931A1, “Cosmetic method for limiting age-related hollowing of the face” (priority 2006, published 2008)

Experiments:
LPL (lipoprotein lipase) = experiment: Stimulation of adipocyte differentiation: expression of LPL marker by RT-Q-PCR in pre-adipocytes; assay type: cell-based, human; details: 25 ng/ml; 4 days; control differentiated cells = 100
Description: The activity of a Vitreoscilla filiformis cell extract as prepared according to Example 1 on a local adipose development was evaluated. The study was carried out on human adipocytes obtained from the abdominal region. Various parameters representing the adipocyte physiology were analysed: • a) stimulation of lipogenesis by measurement of the incorporation of ^14C-acetate into lipids; • b) stimulation of adipocyte differentiation by measuring the expression of adipocyte differentiation markers: LPL (lipoprotein lipase, involved in the storage of fat; • c) monitoring of the enrichment in lipids by specific staining (AdipoRed™) and imaging; • d) monitoring of the cell size/size distribution by flow cytometry and fluorescent labelling (AdipoRed™). […]
At the end of the treatment, the supernatants were removed and the cells rinsed in PBS and a volume of 300 μl of Tri-Reagent was added to each well. The expression of the LPL marker was evaluated by RT-Q-PCR on messenger RNAs extracted from the cellular lawns of each treatment. […]
The incorporation of fluorescence into the amplified DNA was measured continuously during the PCR cycles. A relative expression value was evaluated for the LPL marker, expressed in arbitrary units according to the following formula: (½^number of cycles)×10^6
The results are expressed as % relative expression compared with the control.

[1] = test system: Normal human pre-adipocytes; experiment: Enrichment with lipids by AdipoRed staining and imaging (Spectramax reader); assay type: cell-based; details: differentiated cells, 25 ng/ml
Description: (§1) Normal human pre-adipocytes were cultured in PGM growth medium at 37° C. and 5% CO2 until confluent. At confluence (D0), the cells were placed in differentiation medium (series 1, differentiated cells) or normal growth medium (series 2, undifferentiated cells), containing or not containing (control) the test products or the reference (TNFα, differentiation inhibitor). The cells were then incubated at 37° C. and 5% CO2 for 4 days.
Monitoring of the Enrichment with Lipids by Specific Staining (AdipoRed™) and Imaging
At the end of the treatments, the cells were rinsed in PBS and then the intracellular lipids were stained with AdipoRed from BioWhittaker. The stained cells were observed by optical microscopy, with the Spectramax reader.
(§2) The results are expressed as % increase relative to the control.

[2] = test system: Normal human pre-adipocytes; experiment: Cell size/size distribution by flow cytometry and AdipoRed fluorescent labelling; assay type: cell-based; details: differentiated cells; 25 ng/ml
Description: as §1
Monitoring of the Cell Size/Size Distribution by Flow Cytometry and AdipoRed™ Fluorescent Labelling
At the end of the treatments, the cells were rinsed in PBS and then the intracellular lipids were stained with AdipoRed from BioWhittaker.
At the end of the incubation, the cells were rinsed, trypsinized and then analysed by flow cytometry. The differentiation of the pre-adipocytes manifested itself at the morphological level by an increase in the number of intracytoplasmic lipid vesicles and an increase in the size of the cells.
as §2

[3] = test system: human adipocytes obtained from the abdominal region; experiment: Stimulation of lipogenesis by measuring the incorporation of 14C-acetate into the lipids; assay type: cell-based; details: for % control (incorporation of 14C-acetate into lipids): 1 h preincubation, 4 h treatment
Description: The activity of a Vitreoscilla filiformis cell extract as prepared according to Example 1 on a local adipose development was evaluated. The study was carried out on human adipocytes obtained from the abdominal region. Various parameters representing the adipocyte physiology were analysed: • a) stimulation of lipogenesis by measurement of the incorporation of ^14C-acetate into lipids; • b) stimulation of adipocyte differentiation by measuring the expression of adipocyte differentiation markers: LPL (lipoprotein lipase, involved in the storage of fat; • c) monitoring of the enrichment in lipids by specific staining (AdipoRed™) and imaging; • d) monitoring of the cell size/size distribution by flow cytometry and fluorescent labelling (AdipoRed™). Stimulation of Lipogenesis by Measuring the Incorporation of ^14C-acetate into the Lipids The adipocytes were isolated after an abdominal plastic surgery operation and then incubated in the presence of collagenase and then washed and taken up in test medium. This test medium contained: • product to be tested (Vitreoscilla filiformis extract at various concentrations/theophylline 1 mM/isoproterenol 1 μM), or nothing for the control • bicarbonate 1.87 mg/ml • penicillin/streptomycin 25 IU/ml/25 μg/ml • glutamine 2 mM • MEM without phenol red qs 100% (v/v) supplemented with lipid-free bovine serum albumin at 0.5% (w/v). The products to be tested and the adipocytes were preincubated at 37° C. for 1 h, and then ^14C-acetate was added at 50 μCi/ml. After 4 h of treatment, the lipids were extracted with methanol/chloroform/water and the incorporated radioactivity was counted by liquid scintillation.

TNFα was tested, and the “LPL, % relative expression compared with the control” value (LPL (lipoprotein lipase)) was 111%, the “lipid level (in words)” value [1] was “reduced the lipid level” and the “% control (intracellular lipids, AdipoRed, Spectramax)” value ([1]; 4 days) was 83 % control. The “% control (AdipoRed measurement, flow cytometry)” value [2] was 80 % control.

In the case of `CC(C)NCC(O)c1ccc(O)c(O)c1` (stereo not shown) [Isoproterenol], the “% control (incorporation of 14C-acetate into lipids)” value ([3]; 1 μM) is reported as 3400 % control.

In the case of `C/C=C/C/C=C/CCC(=O)[C@H]1O[C@H]1C(N)=O` [Cerulenin], the “% control (incorporation of 14C-acetate into lipids)” value ([3]; 20 μM) is reported as 34 % control and the “incorporation of acetate into lipids (in words)” value ([3]; tested at 0.02 mM) is reported as “significantly inhibited”.
